Measured values: ChEMBL document CHEMBL5137128, “Daphnoretin Arrests the Cell Cycle and Induces Apoptosis in Human Breast Cancer Cells” (J Nat Prod, 2022)
Calls of active or inactive are those of the source. The calls are words filed in the database; no cut-off is given here.

What was measured:
MCF7 [1] = assay: Induction of cell cycle arrest in human MCF7 cells assessed as G2/M phase cells at 1 uM incubated for 24 hrs by propidium iodide staining based flow cytometry analysis (reference value: 0.86 %); assay type: functional
MCF7 [2] = assay: Induction of cell cycle arrest in human MCF7 cells assessed as accumulation of S phase cells at 1 uM incubated for 24 hrs by propidium iodide staining based flow cytometry analysis (reference value: 27.84 %); assay type: functional
MCF7 [3] = assay: Induction of cell cycle arrest in human MCF7 cells assessed as G0-G1 phase cells at 1 uM incubated for 24 hrs by propidium iodide staining based flow cytometry analysis (reference value: 71.30 %); assay type: functional
MCF7 [4] = assay: Antiproliferative activity human MCF7 cells assessed as inhibition of cell proliferation incubated for 24 hrs by MTT assay; assay type: functional, cell-based; details: MCF7, 24 h
MDA-MB-231 [5] = assay: Antiproliferative activity human MDA-MB-231 cells assessed as inhibition of cell proliferation incubated for 24 hrs by MTT assay; assay type: functional, cell-based; details: MDA-MB-231, 24 h
MCF7 [6] = assay: Antiproliferative activity human MCF7 cells assessed as inhibition of cell proliferation at 0.1 to 8 uM incubated for 48 hrs by MTT assay; assay type: functional, cell-based; details: dose 0.1-8 µM
MDA-MB-231 [7] = assay: Antiproliferative activity human MDA-MB-231 cells assessed as inhibition of cell proliferation at 0.1 to 8 uM incubated for 48 hrs by MTT assay; assay type: functional, cell-based; details: dose 0.1-8 µM
MCF7 [8] = assay: Induction of morphological changes in human MCF7 cells assessed as decrease in cell numbers at 1 to 4 uM by electron microscopic analysis; assay type: functional, cell-based; details: dose 1-4 µM
MDA-MB-231 [9] = assay: Induction of morphological changes in human MDA-MB-231 cells assessed as decrease in cell numbers at 0.5 to 2 uM by electron microscopic analysis; assay type: functional, cell-based; details: dose 0.5-2 µM
MCF7 [10] = assay: Induction of morphological changes in human MCF7 cells assessed as deformed cells at 1 to 4 uM by electron microscopic analysis; assay type: functional, cell-based; details: dose 1-4 µM
MDA-MB-231 [11] = assay: Induction of morphological changes in human MDA-MB-231 cells assessed as deformed cells at 0.5 to 2 uM by electron microscopic analysis; assay type: functional, cell-based; details: dose 0.5-2 µM
MCF7 [12] = assay: Induction of morphological changes in human MCF7 cells assessed as cell shrinkage at 1 to 4 uM by electron microscopic analysis; assay type: functional, cell-based; details: dose 1-4 µM
MDA-MB-231 [13] = assay: Induction of morphological changes in human MDA-MB-231 cells assessed as cell shrinkage at 0.5 to 2 uM by electron microscopic analysis; assay type: functional, cell-based; details: dose 0.5-2 µM
MCF7 [14] = assay: Induction of cell cycle arrest in human MCF7 cells assessed as G0-G1 phase cells at 2 uM incubated for 24 hrs by propidium iodide staining based flow cytometry analysis (reference value: 71.30 %); assay type: functional
MCF7 [15] = assay: Induction of cell cycle arrest in human MCF7 cells assessed as accumulation of S phase cells at 2 uM incubated for 24 hrs by propidium iodide staining based flow cytometry analysis (reference value: 27.84 %); assay type: functional
MCF7 [16] = assay: Induction of cell cycle arrest in human MCF7 cells assessed as G2/M phase cells at 2 uM incubated for 24 hrs by propidium iodide staining based flow cytometry analysis (reference value: 0.86 %); assay type: functional
MCF7 [17] = assay: Induction of cell cycle arrest in human MCF7 cells assessed as G0-G1 phase cells at 4 uM incubated for 24 hrs by propidium iodide staining based flow cytometry analysis (reference value: 71.30 %); assay type: functional
MCF7 [18] = assay: Induction of cell cycle arrest in human MCF7 cells assessed as accumulation of S phase cells at 4 uM incubated for 24 hrs by propidium iodide staining based flow cytometry analysis (reference value: 27.84 %); assay type: functional
MCF7 [19] = assay: Induction of cell cycle arrest in human MCF7 cells assessed as G2/M phase cells at 4 uM incubated for 24 hrs by propidium iodide staining based flow cytometry analysis (reference value: 0.86 %); assay type: functional
MCF7 [20] = assay: Induction of cell cycle arrest in human MCF7 cells assessed as downregulation of CDK2 expression at 1 to 4 uM measured upto 24 hrs by Western blot analysis relative to control; assay type: functional, cell-based; details: dose 1-4 µM
MCF7 [21] = assay: Induction of cell cycle arrest in human MCF7 cells assessed as downregulation of cyclin E expression at 1 to 4 uM measured upto 24 hrs by Western blot analysis relative to control; assay type: functional, cell-based; details: dose 1-4 µM
MDA-MB-231 [22] = assay: Induction of cell cycle arrest in human MDA-MB-231 cells assessed as G0-G1 phase cells at 0.5 uM incubated for 24 hrs by propidium iodide staining based flow cytometry analysis (reference value: 66.84 %); assay type: functional
MDA-MB-231 [23] = assay: Induction of cell cycle arrest in human MDA-MB-231 cells assessed as accumulation of S phase cells at 0.5 uM incubated for 24 hrs by propidium iodide staining based flow cytometry analysis (reference value: 28.71 %); assay type: functional
MDA-MB-231 [24] = assay: Induction of cell cycle arrest in human MDA-MB-231 cells assessed as G2/M phase cells at 0.5 uM incubated for 24 hrs by propidium iodide staining based flow cytometry analysis (reference value: 4.44 %); assay type: functional
MDA-MB-231 [25] = assay: Induction of cell cycle arrest in human MDA-MB-231 cells assessed as G0-G1 phase cells at 1 uM incubated for 24 hrs by propidium iodide staining based flow cytometry analysis (reference value: 66.84 %); assay type: functional
MDA-MB-231 [26] = assay: Induction of cell cycle arrest in human MDA-MB-231 cells assessed as accumulation of S phase cells at 1 uM incubated for 24 hrs by propidium iodide staining based flow cytometry analysis (reference value: 28.71 %); assay type: functional

COc1cc2cc(Oc3ccc4ccc(=O)oc4c3)c(=O)oc2cc1O [DAPHNORETIN]
Activity (MCF7 [1]): 1.92% | Activity (MCF7 [2]): 38.59% | Activity (MCF7 [3]): 59.49% | IC50 (MCF7 [4]): 2000 nM | IC50 (MDA-MB-231 [5]): 1000 nM | Activity (MCF7 [6]): Active | Activity (MDA-MB-231 [7]): Active | Activity (MCF7 [8]): Active | Activity (MDA-MB-231 [9]): Active | Activity (MCF7 [10]): Active | Activity (MDA-MB-231 [11]): Active | Activity (MCF7 [12]): Active | Activity (MDA-MB-231 [13]): Active | Activity (MCF7 [14]): 50.95% | Activity (MCF7 [15]): 43.73% | Activity (MCF7 [16]): 5.32% | Activity (MCF7 [17]): 51.27% | Activity (MCF7 [18]): 46.53% | Activity (MCF7 [19]): 2.2% | Activity (MCF7 [20]): Active | Activity (MCF7 [21]): Active | Activity (MDA-MB-231 [22]): 53.37% | Activity (MDA-MB-231 [23]): 37.3% | Activity (MDA-MB-231 [24]): 9.33% | Activity (MDA-MB-231 [25]): 46% | Activity (MDA-MB-231 [26]): 45.58%
